Reference: the SangsterLogP compilation

Settings: pH 7.4

| logD | Structure (SMILES) |
| --- | --- |
| 1.32 | Cc1ncc(-c2ccnc(Nc3ccc(S(=O)(=O)CCCN(C)C)cc3)n2)n1C(C)C |
| 1.4 | N#CC1(NC(=O)[C@@H]2CCCC[C@H]2C(=O)N2CCN(c3nc4ncccc4s3)CC2)CC1 |
| 1.37 | COc1ccc(N(C(=O)c2occc2CO)C(C(=O)NC[C@@H](C)O)c2ccccc2F)c(OC)c1 (some centres undefined) |
| 1.9 | CN1CCC(c2cc(N3CCOCC3)nc(-c3cccc4[nH]ccc34)n2)(S(C)(=O)=O)CC1 |
| 2.38 | C[C@H]1COCCN1c1cc(CS(C)(=O)=O)nc(-c2ccc3[nH]ccc3c2)n1 |
| 1.3 | Cc1ccc(-c2cccc(-c3nn[nH]n3)c2)cc1 |
| 1.79 | N#CCNC(=O)[C@@H]1CCCC[C@H]1C(=O)N1CCN(c2ccc(C#N)cc2)CC1 |
| 4.1 | CC(C)c1ccc2[nH]c3c(c2c1)CN(C(=O)[C@@H]1CCCC[C@H]1C(=O)NC1(C#N)CC1)CC3 |
| 1.78 | C[C@H]1O[C@@H](n2cnc3c(N)nc(OCC4CC45CC5)nc32)[C@H](O)[C@@H]1O (some centres undefined) |
| 1.58 | N#Cc1cccnc1-c1ccc(C(=O)Nc2ccccc2N)cc1 |
| 1.5 | CS(=O)(=O)c1ccc2c3c([nH]c2c1)CCN(C(=O)[C@@H]1CCCC[C@H]1C(=O)NC1(C#N)CC1)C3 |
| 3.3 | CN(C(=O)Cc1ccc(-n2cnnn2)cc1)[C@H]1CCN(Cc2ccc(C(F)(F)F)cc2)C[C@H]1F |
| 1.66 | N#CC1(NC(=O)[C@@H]2CCCC[C@H]2C(=O)N2CCN(c3nc4cnccc4s3)CC2)CC1 |
| 3 | N#CC1(NC(=O)[C@@H]2CCCC[C@H]2C(=O)N2CCc3[nH]c4ccc(F)cc4c3C2)CC1 |
| 2.57 | Cc1ncc(-c2ccnc(Nc3ccc(N4CCN(S(C)(=O)=O)CC4)cc3)n2)n1C(C)C |
| 2.67 | Cc1noc2cc(N3CCN(C(=O)[C@@H]4CCCC[C@H]4C(=O)NC4(C#N)CC4)[C@H](C)C3)ccc12 |
| 2.4 | CS(=O)(=O)C1(c2cc(N3CCOCC3)nc(-c3cccc4[nH]ccc34)n2)CCOCC1 |

| logD | Structure (SMILES) |
| --- | --- |
| 2.8 | CC(C)(C)OC(=O)N1CCN(c2ccc(OCc3ccc(S(C)(=O)=O)cc3)nn2)CC1 |
| 3.4 | CC(C)(C)OC(=O)N1C[C@@H]2CC[C@H]1CN2c1ncc(OCc2ccc(S(C)(=O)=O)cc2)cn1 |
| 3.86 | COc1ccc(N(C(=O)c2ccccc2)C(C(=O)NC2CCCC2)c2ccccc2F)c(OC)c1 (centres undefined) |
| 1.52 | Cc1nc2nc(-c3cccnc3)[nH]n2c(=O)c1Cc1ccccc1 |
| 3.5 | C[C@@H]1CN(C(=O)OC(C)(C)C)CCN1c1ncc(OCC2CCN(S(C)(=O)=O)CC2)cn1 |
| 2.21 | CCNC(=O)c1cc2c(-n3ccc(C(F)(F)F)n3)c(-c3cncc(C(=O)NC)c3)cnc2[nH]1 |
| 2.66 | N#CC1(NC(=O)[C@@H]2CCCC[C@H]2C(=O)N2CCc3[nH]c4ccccc4c3C2)CC1 |
| 2.93 | CC(C)(C)OC(=O)N1CCN(c2ncc(OCc3ccc(S(C)(=O)=O)cc3)nn2)CC1 |
| 3.01 | CC(=O)c1ncccc1NC(=O)C1CCC(N2C(=O)[C@@H]3[C@@H]4CC[C@@H](C4)[C@@H]3C2=O)CC1 (some centres undefined) |
| 3.6 | Cc1cc(C(C)Nc2ccccc2)c2nc(N3CCOCC3)cc(=O)n2c1 (centres undefined) |
| 1.94 | CS(=O)(=O)Cc1cc(N2CCOCC2)nc(-c2ccccc2)n1 |
| 1.3 | O=c1cc(-c2ccccc2)nc2cc[nH]n12 |
| 0.85 | CS(=O)(=O)Cc1cc(N2CCOCC2)nc(-c2ccc(NS(C)(=O)=O)cc2)n1 |
| 3.6 | CC(C)(C)OC(=O)N1CCN(c2ncc(OCc3ccncc3F)cn2)CC1 |
| 2.88 | Cc1ncc(-c2ccnc(Nc3ccc(N4CCOCC4)cc3)n2)n1C(C)C |
| 2.9 | N#Cc1ccc(CN2CCN(c3ccc4nnc(C(F)(F)F)n4n3)CC2)cc1 |
| 1.34 | O=S(=O)(Cc1cc(N2CCOCC2)nc(-c2ccccn2)n1)c1ccccc1 |

Second part, the molecule before the results:

| Structure (SMILES) | logD |
| --- | --- |
| N#CC1(NC(=O)[C@@H]2CCCC[C@H]2C(=O)N2CCc3[nH]c4ccc(Cl)cc4c3C2)CC1 | 3.65 |
| CC(C)(C)OC(=O)N1CCN(c2cnc(OCc3ccc(S(C)(=O)=O)cc3)cn2)CC1 | 3.4 |
| C[C@@H]1CN(C(=O)OC(C)(C)C)CCN1c1ncc(OCc2ccc(S(C)(=O)=O)cc2C#N)cn1 | 3.3 |
| O=C(Nc1cccc2cccnc12)C1CCC(N2C(=O)[C@@H]3[C@@H]4CC[C@@H](C4)[C@@H]3C2=O)CC1 (some centres undefined) | 3.94 |
| CS(=O)(=O)C1(c2cc(N3CCOCC3)nc(-c3cccc4[nH]ccc34)n2)CC1 | 2.2 |
| Cc1nnc(C)c2cc(N3CCN(C(=O)[C@@H]4CCCC[C@H]4C(=O)NC4(C#N)CC4)[C@H](C)C3)ccc12 | 1.93 |
| COc1cc(N2CCN(C(=O)[C@@H]3CCCC[C@H]3C(=O)NC3(C#N)CC3)[C@H](C)C2)ccc1C1CC1 | 3.49 |
| COc1cc(OC)c(S(=O)(=O)N2c3ccccc3CCC2C)cc1NC(=O)CSc1ccncc1 (centres undefined) | 2.82 |
| COc1c/c(=C2\C=c3ccccc3=N2)[nH]/c1=C\c1[nH]c(C)cc1C | 2.55 |
| CC(C)(C)OC(=O)N1CCN(c2ccc(OCc3ccc(S(C)(=O)=O)cc3)cn2)CC1 | 3.2 |
| CS(=O)(=O)c1cccc2c3c([nH]c12)CCN(C(=O)[C@@H]1CCCC[C@H]1C(=O)NC1(C#N)CC1)C3 | 1.7 |
| C[C@H]1O[C@@H](n2cnc3c(N)nc(O[C@H]4CC[C@H](C)CC4)nc32)[C@H](O)[C@@H]1O | 2.35 |
| CC(C)c1nc(N2CCN(c3ncc(OCc4ccncc4C#N)cn3)[C@H](C)C2)no1 | 3.3 |
| COc1ccc(N2CCN(C(=O)[C@@H]3CCCC[C@H]3C(=O)NC3(C#N)CC3)[C@H](C)C2)cc1OC | 1.85 |
| C[C@@H](Oc1ccc(S(C)(=O)=O)cc1C(=O)N1CCN(c2ncc(C(F)(F)F)cc2F)CC1)C(F)(F)F | 3.49 |
| CS(=O)(=O)c1cccc(Nc2nccc(Nc3c(Cl)ccc4c3OCO4)n2)c1 | 3.13 |
| CCOc1cccc2c3c([nH]c12)CCN(C(=O)[C@@H]1CCCC[C@H]1C(=O)NC1(C#N)CC1)C3 | 3.1 |
| Cc1nc2nc[nH]n2c(=O)c1CCOC(=O)c1c(F)cccc1F | 0.16 |
| C[C@@H]1COCCN1c1cc(C2(S(C)(=O)=O)CC2)nc(-c2cccc3[nH]ccc23)n1 | 2.7 |
| C[C@@H]1CN(c2noc(C3CC3)n2)CCN1c1ncc(OCc2ccncc2C#N)cn1 | 3.1 |

| Structure (SMILES) | logD |
| --- | --- |
| N#CC1(NC(=O)[C@@H]2CCCC[C@H]2C(=O)N2CCc3[nH]c4cc(F)ccc4c3C2)CC1 | 2.99 |
| CCCSc1c(C(=O)NC2CCCCC2)cnn1C | 2.99 |
| N#CC1(NC(=O)[C@@H]2CCCC[C@H]2C(=O)N2CCc3[nH]c4ncccc4c3C2)CC1 | 2.13 |
| C[C@@H](c1ncncc1F)[C@](O)(Cn1cncn1)c1ccc(F)cc1F | 1.7 |
| COc1cc(OC)c(S(=O)(=O)NCc2ccccc2N2CCC(CO)CC2)cc1NC(C)=O | 1.03 |
| CC(C)(C)OC(=O)N1CCN(c2ccc(OCc3ccc(S(C)(=O)=O)cc3)cc2)CC1 | 3.9 |
| CC1(C)COCc2sc(N3CCN(C(=O)[C@@H]4CCCC[C@H]4C(=O)NC4(C#N)CC4)CC3)nc21 | 2.4 |
| Nc1ccccc1NC(=O)c1ccc(-c2ncc(CN3CCC3)cc2F)cc1 | 1.69 |
| Cc1cnccc1COc1cnc(N2CCN(C(=O)OC(C)(C)C)CC2)nc1 | 3.8 |
| CCNC(=O)c1cc2c(-n3ccc(C(F)(F)F)n3)c(-c3cncc(-c4n[nH]c(=O)o4)c3)cnc2[nH]1 | 1.65 |
| N#CC1(NC(=O)[C@@H]2CCCC[C@H]2C(=O)N2CCc3oc4ccccc4c3C2)CC1 | 3.01 |
| Cc1ncc(-c2nc(Nc3ccc(N4CCN(C(=O)CO)CC4)cc3)ncc2F)n1C(C)C | 2.19 |
| CCNC(=O)c1cc2c(-n3ccc(C(F)(F)F)n3)c(-c3cc(-c4n[nH]c(=O)o4)cnc3OC)cnc2[nH]1 | 2.91 |
| N#CC1(NC(=O)[C@@H]2CCCC[C@H]2C(=O)N2CCN(c3nc(C(F)(F)F)cs3)CC2)CC1 | 2.4 |
| CCCSc1ncccc1C(=O)NC1CCCCC1 | 3.24 |
| Nc1ccccc1NC(=O)c1ccc(N2CCOCC2)cc1 | 1.2 |
| COc1cnccc1COc1cnc(N2CCN(C(=O)OC(C)(C)C)CC2)nc1 | 3.8 |
| COc1ccc(N(C(=O)c2occc2Cl)C(C(=O)NC[C@@H](C)O)c2ccccc2F)c(OC)c1 (some centres undefined) | 2.18 |
| COc1ccc(N(C(=O)c2ccccc2)C(C(=O)NC[C@@H](C)O)c2ccccc2F)c(OC)c1 (some centres undefined) | 2.55 |
| CC(C)(C)OC(=O)N1CCN(c2ncc(OCc3ccncc3)cn2)CC1 | 3.4 |

| Structure (SMILES) | logD |
| --- | --- |
| Cc1nn(C)c2ccc(N3CCN(C(=O)[C@@H]4CCCC[C@H]4C(=O)NC4(C#N)CC4)[C@H](C)C3)cc12 | 2.8 |
| CCCN(c1cccnc1)P(=O)(c1ccccc1)c1ccccc1 | 2.6 |
| COc1ccc(N2CCN(C(=O)[C@@H]3CCCC[C@H]3C(=O)NC3(C#N)CC3)CC2)cc1OC | 1.4 |
| N#CC1(NC(=O)[C@@H]2CCCC[C@H]2C(=O)N2CCc3[nH]c4cccc(F)c4c3C2)CC1 | 3.2 |
| Cc1nc2nc(NC(=O)c3ccc(F)cc3)[nH]n2c(=O)c1Cc1ccccc1 | 2.2 |
| COc1cc(OC)c(S(=O)(=O)N2c3ccccc3CCC2C)cc1NC(C)=O (centres undefined) | 1.97 |
| N#CC1(NC(=O)[C@@H]2CCCC[C@H]2C(=O)N2CCc3[nH]c4ccc(C(F)(F)F)cc4c3C2)CC1 | 4.2 |
| N#CC1(NC(=O)[C@@H]2CCCC[C@H]2C(=O)N2CCN(c3nccs3)CC2)CC1 | 1.3 |
| CCCCN1Cc2c(nc3cc(-c4ccco4)[nH]n3c2=O)C1=O | 0.8 |
| Cc1sc(N2CCN(C(=O)[C@@H]3CCCC[C@H]3C(=O)NC3(C#N)CC3)CC2)nc1C(F)(F)F | 2.87 |
| C[C@@H]1CN(C(=O)OC(C)(C)C)CCN1c1ncc(OCc2ccc(S(C)(=O)=O)cc2F)cn1 | 3.7 |
| CC(=O)NC1CN(c2ccc(Nc3ncc(F)c(-c4cnc(C)n4C(C)C)n3)cc2)C1 | 2.76 |
| CS(=O)(=O)Cc1cc(N2CCOCC2)nc(-c2cccc3[nH]ccc23)n1 | 1.7 |
| Cc1nc2nc[nH]n2c(=O)c1CCOC(=O)c1ccccc1F | 0.99 |
| N#CC1(NC(=O)[C@@H]2CCCC[C@H]2C(=O)N2CCN(c3nc4c(s3)COCC4)CC2)CC1 | 1.42 |
| O=c1cc(O)c2c(=O)n(-c3ccccc3)c3ccccc3c2o1 | 0.96 |
| COCc1ccoc1C(=O)N(c1ccc(OC)cc1OC)C(C(=O)NC[C@@H](C)O)c1ccccc1F (some centres undefined) | 1.98 |
| COC1/C=C\OC2(C)Oc3c(C)c(O)c4c(c3C2=O)C(=O)C=C(NC(=O)/C(C)=C\C=C/C(C)C(O)C(C)C(O)C(C)C(OC(C)=O)C1C)C4=O (centres undefined) | 0.7 |
| COc1cc2ncnc(Nc3cccc(Cl)c3F)c2cc1OC1CCN(CC(N)=O)CC1 | 3.1 |
| N#CC1(NC(=O)[C@@H]2CCCC[C@H]2C(=O)N2CCN(c3nc(-c4ccccc4)cs3)CC2)CC1 | 3.5 |
